Test results from ChEMBL document CHEMBL2440076, “New triarylpyrazoles as broad-spectrum anticancer agents: design, synthesis, and biological evaluation” (Eur J Med Chem, 2013).

What was measured:
Format in all cases: functional
A549 = assay: Growth inhibition of human A549/ATCC cells assessed as cell growth at 5X10'-5 M after 48 hrs by sulforhodamine B assay; conditions: A549, 48 h, read-out: Activity
SK-MEL-5 = assay: Growth inhibition of human SK-MEL-5 cells assessed as cell growth at 5X10'-7 M after 48 hrs by sulforhodamine B assay; conditions: SK-MEL-5, 48 h, read-out: Activity
UACC-257 [1] = assay: Growth inhibition of human UACC257 cells assessed as cell growth at 5X10'-5 M after 48 hrs by sulforhodamine B assay; conditions: UACC-257, 48 h, read-out: Activity
MDA-MB-435 [2] = assay: Growth inhibition of human MDA-MB-435 cells assessed as cell growth at 5X10'-5 M after 48 hrs by sulforhodamine B assay; conditions: MDA-MB-435, 48 h, read-out: Activity
IGROV-1 = assay: Growth inhibition of human IGROV1 cells assessed as cell growth at 5X10'-9 M after 48 hrs by sulforhodamine B assay; conditions: IGROV-1, 48 h, read-out: Activity
UACC-257 [3] = assay: Growth inhibition of human UACC257 cells assessed as cell growth at 5X10'-8 M after 48 hrs by sulforhodamine B assay; conditions: UACC-257, 48 h, read-out: Activity
K562 = assay: Growth inhibition of human K562 cells assessed as cell growth at 5X10'-6 M after 48 hrs by sulforhodamine B assay; conditions: K562, 48 h, read-out: Activity
HCT-15 = assay: Growth inhibition of human HCT15 cells assessed as cell growth at 5X10'-5 M after 48 hrs by sulforhodamine B assay; conditions: HCT-15, 48 h, read-out: Activity
SNB-75 [4] = assay: Growth inhibition of human SNB75 cells assessed as cell growth at 5X10'-9 M after 48 hrs by sulforhodamine B assay; conditions: SNB-75, 48 h, read-out: Activity
HL-60(TB) = assay: Growth inhibition of human HL-60(TB) cells assessed as cell growth at 5X10'-6 M after 48 hrs by sulforhodamine B assay; conditions: HL-60, 48 h, read-out: Activity
HCT-116 = assay: Growth inhibition of human HCT116 cells assessed as cell growth at 5X10'-8 M after 48 hrs by sulforhodamine B assay; conditions: HCT-116, 48 h, read-out: Activity
KM12 = assay: Growth inhibition of human KM12 cells assessed as cell growth at 5X10'-8 M after 48 hrs by sulforhodamine B assay; conditions: KM12, 48 h, read-out: Activity
SNB-19 [5] = assay: Growth inhibition of human SNB19 cells assessed as cell growth at 5X10'-7 M after 48 hrs by sulforhodamine B assay; conditions: SNB-19, 48 h, read-out: Activity
M14 = assay: Growth inhibition of human M14 cells assessed as cell growth at 5X10'-6 M after 48 hrs by sulforhodamine B assay; conditions: M14, 48 h, read-out: Activity
SNB-75 [6] = assay: Growth inhibition of human SNB75 cells assessed as cell growth at 5X10'-8 M after 48 hrs by sulforhodamine B assay; conditions: SNB-75, 48 h, read-out: Activity
MDA-MB-435 [7] = assay: Growth inhibition of human MDA-MB-435 cells assessed as cell growth at 5X10'-7 M after 48 hrs by sulforhodamine B assay; conditions: MDA-MB-435, 48 h, read-out: Activity
T47D [8] = assay: Growth inhibition of human T47D cells assessed as cell growth at 5X10'-9 M after 48 hrs by sulforhodamine B assay; conditions: read-out: Activity
SNB-19 [9] = assay: Growth inhibition of human SNB19 cells assessed as cell growth at 5X10'-8 M after 48 hrs by sulforhodamine B assay; conditions: SNB-19, 48 h, read-out: Activity
T47D [10] = assay: Growth inhibition of human T47D cells assessed as cell growth at 5X10'-8 M after 48 hrs by sulforhodamine B assay; conditions: read-out: Activity
PC-3 = assay: Growth inhibition of human PC3 cells assessed as cell growth at 5X10'-7 M after 48 hrs by sulforhodamine B assay; conditions: PC-3, 48 h, read-out: Activity
UACC-62 [11] = assay: Growth inhibition of human UACC62 cells assessed as cell growth at 5X10'-5 M after 48 hrs by sulforhodamine B assay; conditions: UACC-62, 48 h, read-out: Activity
COLO 205 = assay: Growth inhibition of human COLO205 cells assessed as cell growth at 5X10'-5 M after 48 hrs by sulforhodamine B assay; conditions: COLO 205, 48 h, read-out: Activity
UACC-62 [12] = assay: Growth inhibition of human UACC62 cells assessed as cell growth at 5X10'-9 M after 48 hrs by sulforhodamine B assay; conditions: UACC-62, 48 h, read-out: Activity
MDA-MB-435 [13] = assay: Growth inhibition of human MDA-MB-435 cells assessed as cell growth at 5X10'-6 M after 48 hrs by sulforhodamine B assay; conditions: MDA-MB-435, 48 h, read-out: Activity
CAKI-1 [14] = assay: Growth inhibition of human CAKI-1 cells assessed as cell growth at 5X10'-7 M after 48 hrs by sulforhodamine B assay; conditions: CAKI-1, 48 h, read-out: Activity
MCF7 = assay: Growth inhibition of human MCF7 cells assessed as cell growth at 5X10'-9 M after 48 hrs by sulforhodamine B assay; conditions: MCF7, 48 h, read-out: Activity
SR = assay: Growth inhibition of human SR cells assessed as cell growth at 5X10'-9 M after 48 hrs by sulforhodamine B assay; conditions: read-out: Activity
NCI-H522 = assay: Growth inhibition of human NCI-H522 cells assessed as cell growth at 5X10'-6 M after 48 hrs by sulforhodamine B assay; conditions: NCI-H522, 48 h, read-out: Activity
SK-MEL-2 = assay: Growth inhibition of human SK-MEL-2 cells assessed as cell growth at 5X10'-9 M after 48 hrs by sulforhodamine B assay; conditions: SK-MEL-2, 48 h, read-out: Activity
HT-29 = assay: Growth inhibition of human HT-29 cells assessed as cell growth at 5X10'-5 M after 48 hrs by sulforhodamine B assay; conditions: HT-29, 48 h, read-out: Activity
T47D [15] = assay: Growth inhibition of human T47D cells assessed as cell growth at 5X10'-6 M after 48 hrs by sulforhodamine B assay; conditions: read-out: Activity
NCI-H23 = assay: Growth inhibition of human NCI-H23 cells assessed as cell growth at 5X10'-7 M after 48 hrs by sulforhodamine B assay; conditions: NCI-H23, 48 h, read-out: Activity
SK-MEL-28 = assay: Growth inhibition of human SK-MEL-28 cells assessed as cell growth at 5X10'-5 M after 48 hrs by sulforhodamine B assay; conditions: SK-MEL-28, 48 h, read-out: Activity
CAKI-1 [16] = assay: Growth inhibition of human CAKI-1 cells assessed as cell growth at 5X10'-9 M after 48 hrs by sulforhodamine B assay; conditions: CAKI-1, 48 h, read-out: Activity
ACHN = assay: Growth inhibition of human ACHN cells assessed as cell growth at 5X10'-5 M after 48 hrs by sulforhodamine B assay; conditions: read-out: Activity
DU-145 = assay: Growth inhibition of human DU145 cells assessed as cell growth at 5X10'-5 M after 48 hrs by sulforhodamine B assay; conditions: DU-145, 48 h, read-out: Activity
OVCAR-8 = assay: Growth inhibition of human OVCAR8 cells assessed as cell growth at 5X10'-7 M after 48 hrs by sulforhodamine B assay; conditions: OVCAR-8, 48 h, read-out: Activity

Row | SMILES | growth at 50 µM (A549) [%] | growth at 0.5 µM (SK-MEL-5) [%] | growth at 50 µM (UACC-257 [1]) [%] | growth at 50 µM (MDA-MB-435 [2]) [%] | growth at 0.005 µM (IGROV-1) [%] | growth at 0.05 µM (UACC-257 [3]) [%] | growth at 5 µM (K562) [%] | growth at 50 µM (HCT-15) [%] | growth at 0.005 µM (SNB-75 [4]) [%] | growth at 5 µM (HL-60(TB)) [%] | growth at 0.05 µM (HCT-116) [%] | growth at 0.05 µM (KM12) [%] | growth at 0.5 µM (SNB-19 [5]) [%] | growth at 5 µM (M14) [%] | growth at 0.05 µM (SNB-75 [6]) [%] | growth at 0.5 µM (MDA-MB-435 [7]) [%] | growth at 0.005 µM (T47D [8]) [%] | growth at 0.05 µM (SNB-19 [9]) [%] | growth at 0.05 µM (T47D [10]) [%] | growth at 0.5 µM (PC-3) [%] | other results
1 | O=C(Nc1cccc(-n2cc(-c3ccncc3)c(-c3ccc(Cl)c(O)c3)n2)c1)c1ccc(N2CCOCC2)c(C(F)(F)F)c1 | 4 | 93 | -9 | 1 | 103 | 104 | 11 | -7 | 94 | 39 | 97 | 93 | 105 | 18 | 88 | 85 | 97 | 104 | 101 | 85 | growth at 50 µM (UACC-62 [11]): -30%; growth at 50 µM (COLO 205): 65%; growth at 0.005 µM (UACC-62 [12]): 98%; growth at 5 µM (MDA-MB-435 [13]): 28%; growth at 0.5 µM (CAKI-1 [14]): 98%; growth at 0.005 µM (MCF7): 89%; growth at 0.005 µM (SR): 94%; growth at 5 µM (NCI-H522): 29%; growth at 0.005 µM (SK-MEL-2): 96%; growth at 50 µM (HT-29): 16%; growth at 5 µM (T47D [15]): 84%; growth at 0.5 µM (NCI-H23): 96%; growth at 50 µM (SK-MEL-28): -54%; growth at 0.005 µM (CAKI-1 [16]): 93%; growth at 50 µM (ACHN): 8%; growth at 50 µM (DU-145): 26%; growth at 0.5 µM (OVCAR-8): 86%
2 | O=C(Nc1cccc(-n2cc(-c3ccncc3)c(-c3ccc(Cl)c(O)c3)n2)c1)Nc1cc(C(F)(F)F)cc(C(F)(F)F)c1 | -80 | 62 | -82 | -69 | 108 | 89 | -5 | -74 | 88 | 3 | 102 | 103 | 64 | -47 | 86 | 79 | 97 | 99 | 98 | 41 | growth at 50 µM (UACC-62 [11]): -89%; growth at 50 µM (COLO 205): -91%; growth at 0.005 µM (UACC-62 [12]): 95%; growth at 5 µM (MDA-MB-435 [13]): -31%; growth at 0.5 µM (CAKI-1 [14]): 74%; growth at 0.005 µM (MCF7): 91%; growth at 0.005 µM (SR): 102%; growth at 5 µM (NCI-H522): -28%; growth at 0.005 µM (SK-MEL-2): 112%; growth at 50 µM (HT-29): -90%; growth at 5 µM (T47D [15]): 20%; growth at 0.5 µM (NCI-H23): 80%; growth at 50 µM (SK-MEL-28): -95%; growth at 0.005 µM (CAKI-1 [16]): 97%; growth at 50 µM (ACHN): -95%; growth at 50 µM (DU-145): -97%; growth at 0.5 µM (OVCAR-8): 52%
3 | COc1cc(-c2nn(-c3cccc(NC(=O)Nc4cccc(C(F)(F)F)c4)c3)cc2-c2ccncc2)ccc1Cl | 1 | 78 | -87 | -63 | 100 | 98 | 3 | -29 | 92 | 4 | 99 | 97 | 74 | -54 | 95 | 80 | 95 | 97 | 98 | 44 | growth at 50 µM (UACC-62 [11]): -87%; growth at 50 µM (COLO 205): -89%; growth at 0.005 µM (UACC-62 [12]): 95%; growth at 5 µM (MDA-MB-435 [13]): -47%; growth at 0.5 µM (CAKI-1 [14]): 79%; growth at 0.005 µM (MCF7): 94%; growth at 0.005 µM (SR): 93%; growth at 5 µM (NCI-H522): -30%; growth at 0.005 µM (SK-MEL-2): 101%; growth at 50 µM (HT-29): -79%; growth at 5 µM (T47D [15]): 18%; growth at 0.5 µM (NCI-H23): 90%; growth at 50 µM (SK-MEL-28): -69%; growth at 0.005 µM (CAKI-1 [16]): 94%; growth at 50 µM (ACHN): -7%; growth at 50 µM (DU-145): 1%; growth at 0.5 µM (OVCAR-8): 65%
